Tests used:
[1] = system: spermatozoa (human semen); assay: Sander-Cramer Spermicidal Assay; assay type: cell-based; conditions: highest dilution that immobilizes spermatozoa in less than 20 seconds; NP9 concentration 10 mg/mL in DMSO
Procedure: In this Example, the preparation of Example 1 was tested for spermicidal activity using the Sander-Cramer spermicidal assay. A series of dilutions of the test compound are prepared using 0.9% saline. 1 mL of test article is mixed with 0.2 mL of human semen in a […] by drawing the mixture into a pipet and forcibly expressing the mixture. This procedure is repeated 6 times. A hanging drop of the mixture is prepared and five fields are observed under low power magnification. The whole process from mixing to microscopic observation must be accomplished in less than 20 seconds. The end point is the highest dilution that immobilizes spermatozoa in less than 20 seconds.

[2] = system: spermatozoa; conditions: cited from earlier work

Substance | Highest Spermicidal Dilution [1] | spermicidal properties (in words) [2]
poly(ethylene glycol) p-nonylphenyl ether [NP9 Control] | 91 | –
polyethylene glycol p-isooctylphenyl ether [TRITON-X] | – | some spermicidal properties

From patent publication US5700679A, “Lipid vesicles having a bilayer containing a surfactant with anti-viral and spermicidal activity” (priority 1996, dated 1997)
